In PubChem BioAssay AID1963965 (Molecular Pharmacology Branch, DTP, NCI, 2024):

Test system: 996289-038-R-J1-PDC spheroid viability
Assay: Anticancer human tumor 996289-038-R-J1-PDC patient-derived colon adenocarcinoma cell line growth inhibition [PI3K]
Conditions: spheroids with HUVEC and MSC; for IC50: curve of first compound; for viability, T/C: stronger effect = lower value
Procedure, shortened: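 Targeted small molecules plus PI3K inhibitors, half-log dose series from Cmax (default top 10 microM), were applied to heterotypic spheroids of cancer cells with HUVEC and MSCs. Viability indicated growth inhibition.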
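Further: spheroids exposed to compounds for seven days before viability read.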
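Wherever viability, T/C is given: luminescence used as a proxy for viable cell amount; percent viability relative to DMSO vehicle control as 100%.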

SMILES: CNC(=O)c1ccc(N2C(=S)N(c3ccc(C#N)c(C(F)(F)F)c3)C(=O)C2(C)C)cc1F + Cc1nc(NC(=O)N2CCCC2C(N)=O)sc1-c1ccnc(C(C)(C)C(F)(F)F)c1
- IC50 (second compound 0.0316 µM): > 10000 nM
- IC50 (second compound 0.1 µM): > 10000 nM
- IC50 (second compound 0.316 µM): > 10000 nM
- IC50 (second compound 1 µM): > 10000 nM
- IC50 (second compound 3.16 µM): > 10000 nM
- IC50 (second compound 10 µM): < 31.6 nM
- viability, T/C (second compound 0.0316 µM, first compound 0.0316 µM): 92%
- viability, T/C (second compound 0.0316 µM, first compound 0.1 µM): 95.8%
- viability, T/C (second compound 0.0316 µM, first compound 0.316 µM): 92.2%
- viability, T/C (second compound 0.0316 µM, first compound 1 µM): 92.3%
- viability, T/C (second compound 0.0316 µM, first compound 3.16 µM): 93.8%
- viability, T/C (second compound 0.0316 µM, first compound 10 µM): 90.4%
- viability, T/C (second compound 0.1 µM, first compound 0.0316 µM): 92.9%
- viability, T/C (second compound 0.1 µM, first compound 0.1 µM): 82.7%
- viability, T/C (second compound 0.1 µM, first compound 0.316 µM): 97.2%
- viability, T/C (second compound 0.1 µM, first compound 1 µM): 83.3%
- viability, T/C (second compound 0.1 µM, first compound 3.16 µM): 95.2%
- viability, T/C (second compound 0.1 µM, first compound 10 µM): 90.3%
- viability, T/C (second compound 0.316 µM, first compound 0.0316 µM): 90.9%
- viability, T/C (second compound 0.316 µM, first compound 0.1 µM): 81%
- viability, T/C (second compound 0.316 µM, first compound 0.316 µM): 88.4%
- viability, T/C (second compound 0.316 µM, first compound 1 µM): 84.8%
- viability, T/C (second compound 0.316 µM, first compound 3.16 µM): 73.9%
- viability, T/C (second compound 0.316 µM, first compound 10 µM): 96.5%
- viability, T/C (second compound 1 µM, first compound 0.0316 µM): 75.6%
- viability, T/C (second compound 1 µM, first compound 0.1 µM): 76.9%
- viability, T/C (second compound 1 µM, first compound 0.316 µM): 69.7%
- viability, T/C (second compound 1 µM, first compound 1 µM): 79.9%
- viability, T/C (second compound 1 µM, first compound 3.16 µM): 80.7%
- viability, T/C (second compound 1 µM, first compound 10 µM): 70.8%
- viability, T/C (second compound 3.16 µM, first compound 0.0316 µM): 65.5%
- viability, T/C (second compound 3.16 µM, first compound 0.1 µM): 64.7%
- viability, T/C (second compound 3.16 µM, first compound 0.316 µM): 58.9%
- viability, T/C (second compound 3.16 µM, first compound 1 µM): 52.4%
- viability, T/C (second compound 3.16 µM, first compound 3.16 µM): 61.5%
- viability, T/C (second compound 3.16 µM, first compound 10 µM): 51.3%
- viability, T/C (second compound 10 µM, first compound 0.0316 µM): 39.9%
- viability, T/C (second compound 10 µM, first compound 0.1 µM): 46.9%
- viability, T/C (second compound 10 µM, first compound 0.316 µM): 49.6%
- viability, T/C (second compound 10 µM, first compound 1 µM): 38.9%
- viability, T/C (second compound 10 µM, first compound 3.16 µM): 48.3%
- viability, T/C (second compound 10 µM, first compound 10 µM): 36.8%

SMILES: Cn1cnc2c(F)c(Nc3ccc(Br)cc3Cl)c(C(=O)NOCCO)cc21 + Cc1nc(NC(=O)N2CCCC2C(N)=O)sc1-c1ccnc(C(C)(C)C(F)(F)F)c1
- IC50 (second compound 0.0316 µM): 148 nM
- IC50 (second compound 0.1 µM): 114 nM
- IC50 (second compound 0.316 µM): 59.4 nM
- IC50 (second compound 1 µM): 24.8 nM
- IC50 (second compound 3.16 µM): 13.5 nM
- IC50 (second compound 10 µM): < 9.49 nM
- viability, T/C (second compound 0.0316 µM, first compound 0.00949 µM): 73%
- viability, T/C (second compound 0.0316 µM, first compound 0.03 µM): 64.4%
- viability, T/C (second compound 0.0316 µM, first compound 0.0949 µM): 54.4%
- viability, T/C (second compound 0.0316 µM, first compound 0.3 µM): 42.5%
- viability, T/C (second compound 0.0316 µM, first compound 0.949 µM): 33.8%
- viability, T/C (second compound 0.0316 µM, first compound 3 µM): 23.6%
- viability, T/C (second compound 0.1 µM, first compound 0.00949 µM): 76.7%
- viability, T/C (second compound 0.1 µM, first compound 0.03 µM): 70.4%
- viability, T/C (second compound 0.1 µM, first compound 0.0949 µM): 48.6%
- viability, T/C (second compound 0.1 µM, first compound 0.3 µM): 38.6%
- viability, T/C (second compound 0.1 µM, first compound 0.949 µM): 30.4%
- viability, T/C (second compound 0.1 µM, first compound 3 µM): 20.5%
- viability, T/C (second compound 0.316 µM, first compound 0.00949 µM): 76.2%
- viability, T/C (second compound 0.316 µM, first compound 0.03 µM): 60.6%
- viability, T/C (second compound 0.316 µM, first compound 0.0949 µM): 41.9%
- viability, T/C (second compound 0.316 µM, first compound 0.3 µM): 32%
- viability, T/C (second compound 0.316 µM, first compound 0.949 µM): 26.5%
- viability, T/C (second compound 0.316 µM, first compound 3 µM): 20.1%
- viability, T/C (second compound 1 µM, first compound 0.00949 µM): 58.2%
- viability, T/C (second compound 1 µM, first compound 0.03 µM): 50.5%
- viability, T/C (second compound 1 µM, first compound 0.0949 µM): 35.3%
- viability, T/C (second compound 1 µM, first compound 0.3 µM): 29.4%
- viability, T/C (second compound 1 µM, first compound 0.949 µM): 22.1%
- viability, T/C (second compound 1 µM, first compound 3 µM): 14.8%
- viability, T/C (second compound 3.16 µM, first compound 0.00949 µM): 55.3%
- viability, T/C (second compound 3.16 µM, first compound 0.03 µM): 39.1%
- viability, T/C (second compound 3.16 µM, first compound 0.0949 µM): 30.1%
- viability, T/C (second compound 3.16 µM, first compound 0.3 µM): 22.2%
- viability, T/C (second compound 3.16 µM, first compound 0.949 µM): 16.8%
- viability, T/C (second compound 3.16 µM, first compound 3 µM): 8.81%
- viability, T/C (second compound 10 µM, first compound 0.00949 µM): 31.3%
- viability, T/C (second compound 10 µM, first compound 0.03 µM): 24.8%
- viability, T/C (second compound 10 µM, first compound 0.0949 µM): 19.1%
- viability, T/C (second compound 10 µM, first compound 0.3 µM): 14%
- viability, T/C (second compound 10 µM, first compound 0.949 µM): 9.2%
- viability, T/C (second compound 10 µM, first compound 3 µM): 5.22%
